Among the data in PMC6757289, “Design and Characterization of SGK3-PROTAC1, an Isoform Specific SGK3 Kinase PROTAC Degrader” (ACS Chemical Biology, 2019) are remaining activity values, retold here.

Holding throughout (test): kinase profiling panel
What all share (assay type): biochemical
Conditions in all cases: read-out: % Activity Remaining

Assay [1] concerns the target T1, EIF2AK3 (Homo sapiens, UniProt Q9NZJ5).
T1 sequence (Q9NZJ5 30-1116): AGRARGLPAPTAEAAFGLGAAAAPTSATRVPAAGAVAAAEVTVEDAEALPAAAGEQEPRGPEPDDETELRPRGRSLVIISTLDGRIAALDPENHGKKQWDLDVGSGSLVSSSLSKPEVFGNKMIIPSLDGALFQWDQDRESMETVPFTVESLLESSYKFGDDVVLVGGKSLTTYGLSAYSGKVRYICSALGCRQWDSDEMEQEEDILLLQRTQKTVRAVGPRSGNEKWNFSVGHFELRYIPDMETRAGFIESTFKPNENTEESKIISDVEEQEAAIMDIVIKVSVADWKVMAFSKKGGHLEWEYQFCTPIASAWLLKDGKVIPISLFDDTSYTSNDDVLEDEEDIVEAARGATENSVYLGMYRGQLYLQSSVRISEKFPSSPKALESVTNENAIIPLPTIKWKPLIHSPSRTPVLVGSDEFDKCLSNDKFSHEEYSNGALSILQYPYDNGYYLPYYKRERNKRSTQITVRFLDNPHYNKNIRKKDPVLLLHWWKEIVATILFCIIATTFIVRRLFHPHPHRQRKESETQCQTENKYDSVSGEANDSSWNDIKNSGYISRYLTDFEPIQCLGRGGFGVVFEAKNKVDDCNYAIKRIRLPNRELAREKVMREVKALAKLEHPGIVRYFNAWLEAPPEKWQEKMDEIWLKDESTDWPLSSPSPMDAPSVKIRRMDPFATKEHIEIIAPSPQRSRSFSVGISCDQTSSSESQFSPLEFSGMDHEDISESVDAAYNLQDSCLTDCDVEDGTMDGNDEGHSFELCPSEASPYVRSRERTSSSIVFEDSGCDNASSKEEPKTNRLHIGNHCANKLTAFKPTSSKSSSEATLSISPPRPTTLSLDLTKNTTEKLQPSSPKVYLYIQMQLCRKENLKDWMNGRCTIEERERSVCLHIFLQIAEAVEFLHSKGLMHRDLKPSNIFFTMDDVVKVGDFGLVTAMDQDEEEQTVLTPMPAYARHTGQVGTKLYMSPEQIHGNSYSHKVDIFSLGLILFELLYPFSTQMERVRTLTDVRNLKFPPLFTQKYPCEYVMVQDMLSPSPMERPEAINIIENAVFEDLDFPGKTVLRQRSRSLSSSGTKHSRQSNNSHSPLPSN
From the text: (§1) Protein kinase profiling against a Dundee panel of 140 protein kinases was undertaken at the International Centre for Protein Kinase Profiling. The result for each kinase was presented as a mean kinase activity of the reaction taken in triplicate relative to a control sample treated with DMSO. Assay conditions and abbreviations are available at http://www.kinase-screen.mrc.ac.uk.

For assay [2], the target named is BRK (Homo sapiens, UniProt Q13882).
From the text: as §1

In assay [3] the target is T2, ZAP70 (Homo sapiens, UniProt P43403).
T2 sequence (P43403 1-619): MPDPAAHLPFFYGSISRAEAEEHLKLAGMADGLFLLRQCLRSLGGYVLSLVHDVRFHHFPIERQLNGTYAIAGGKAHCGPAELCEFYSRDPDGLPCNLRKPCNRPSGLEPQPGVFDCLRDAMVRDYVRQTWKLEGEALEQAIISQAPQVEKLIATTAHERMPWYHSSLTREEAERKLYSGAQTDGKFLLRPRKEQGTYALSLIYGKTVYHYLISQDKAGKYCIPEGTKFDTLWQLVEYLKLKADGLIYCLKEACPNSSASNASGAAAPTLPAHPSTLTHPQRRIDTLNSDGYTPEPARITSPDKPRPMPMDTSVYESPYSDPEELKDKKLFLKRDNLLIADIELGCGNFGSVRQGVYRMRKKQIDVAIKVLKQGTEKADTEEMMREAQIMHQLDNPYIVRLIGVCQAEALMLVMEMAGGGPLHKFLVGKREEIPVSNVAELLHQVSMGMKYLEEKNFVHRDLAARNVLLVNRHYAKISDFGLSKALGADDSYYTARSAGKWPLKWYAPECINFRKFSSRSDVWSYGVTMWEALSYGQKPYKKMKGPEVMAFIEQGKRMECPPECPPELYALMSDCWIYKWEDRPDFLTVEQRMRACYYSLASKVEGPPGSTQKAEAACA
From the text: as §1

Assay [4] has as its target T3, EPH-B2 (Homo sapiens, UniProt P29323).
T3 sequence (P29323 19-1055): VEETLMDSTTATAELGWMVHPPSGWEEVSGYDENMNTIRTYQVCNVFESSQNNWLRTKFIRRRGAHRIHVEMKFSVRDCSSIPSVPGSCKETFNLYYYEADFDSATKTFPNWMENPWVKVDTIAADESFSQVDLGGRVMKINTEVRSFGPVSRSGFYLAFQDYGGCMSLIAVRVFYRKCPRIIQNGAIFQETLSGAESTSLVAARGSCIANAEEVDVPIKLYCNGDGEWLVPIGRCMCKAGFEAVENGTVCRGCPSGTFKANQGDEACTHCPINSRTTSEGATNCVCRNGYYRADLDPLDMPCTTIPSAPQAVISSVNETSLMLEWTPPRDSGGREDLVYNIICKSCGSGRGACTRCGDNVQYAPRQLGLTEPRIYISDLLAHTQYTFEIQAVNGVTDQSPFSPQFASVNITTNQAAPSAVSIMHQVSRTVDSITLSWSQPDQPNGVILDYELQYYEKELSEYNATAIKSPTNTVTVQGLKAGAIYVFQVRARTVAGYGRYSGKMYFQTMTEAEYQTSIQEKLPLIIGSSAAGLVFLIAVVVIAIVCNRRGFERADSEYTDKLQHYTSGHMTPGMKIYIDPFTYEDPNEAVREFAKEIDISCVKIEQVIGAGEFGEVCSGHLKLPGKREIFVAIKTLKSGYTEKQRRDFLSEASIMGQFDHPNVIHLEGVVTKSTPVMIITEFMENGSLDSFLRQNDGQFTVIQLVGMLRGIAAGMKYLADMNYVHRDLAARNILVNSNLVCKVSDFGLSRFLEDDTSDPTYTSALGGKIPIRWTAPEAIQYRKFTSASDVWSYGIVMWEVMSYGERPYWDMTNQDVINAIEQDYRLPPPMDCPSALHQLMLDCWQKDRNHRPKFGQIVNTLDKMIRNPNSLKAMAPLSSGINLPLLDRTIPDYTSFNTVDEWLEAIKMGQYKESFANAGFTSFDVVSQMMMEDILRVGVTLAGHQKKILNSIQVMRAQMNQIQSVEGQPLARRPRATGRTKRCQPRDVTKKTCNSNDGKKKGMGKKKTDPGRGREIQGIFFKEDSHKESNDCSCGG
From the text: as §1

The target of assay [5] is Lck (Homo sapiens, UniProt P06239).
From the text: as §1

Assay [6] addresses HER4 (Homo sapiens, UniProt Q15303).
From the text: as §1

Structures are written as SMILES. Like-named read-outs stand apart in the source and are kept apart here.

Chain of HER4 (Q15303 26-1308): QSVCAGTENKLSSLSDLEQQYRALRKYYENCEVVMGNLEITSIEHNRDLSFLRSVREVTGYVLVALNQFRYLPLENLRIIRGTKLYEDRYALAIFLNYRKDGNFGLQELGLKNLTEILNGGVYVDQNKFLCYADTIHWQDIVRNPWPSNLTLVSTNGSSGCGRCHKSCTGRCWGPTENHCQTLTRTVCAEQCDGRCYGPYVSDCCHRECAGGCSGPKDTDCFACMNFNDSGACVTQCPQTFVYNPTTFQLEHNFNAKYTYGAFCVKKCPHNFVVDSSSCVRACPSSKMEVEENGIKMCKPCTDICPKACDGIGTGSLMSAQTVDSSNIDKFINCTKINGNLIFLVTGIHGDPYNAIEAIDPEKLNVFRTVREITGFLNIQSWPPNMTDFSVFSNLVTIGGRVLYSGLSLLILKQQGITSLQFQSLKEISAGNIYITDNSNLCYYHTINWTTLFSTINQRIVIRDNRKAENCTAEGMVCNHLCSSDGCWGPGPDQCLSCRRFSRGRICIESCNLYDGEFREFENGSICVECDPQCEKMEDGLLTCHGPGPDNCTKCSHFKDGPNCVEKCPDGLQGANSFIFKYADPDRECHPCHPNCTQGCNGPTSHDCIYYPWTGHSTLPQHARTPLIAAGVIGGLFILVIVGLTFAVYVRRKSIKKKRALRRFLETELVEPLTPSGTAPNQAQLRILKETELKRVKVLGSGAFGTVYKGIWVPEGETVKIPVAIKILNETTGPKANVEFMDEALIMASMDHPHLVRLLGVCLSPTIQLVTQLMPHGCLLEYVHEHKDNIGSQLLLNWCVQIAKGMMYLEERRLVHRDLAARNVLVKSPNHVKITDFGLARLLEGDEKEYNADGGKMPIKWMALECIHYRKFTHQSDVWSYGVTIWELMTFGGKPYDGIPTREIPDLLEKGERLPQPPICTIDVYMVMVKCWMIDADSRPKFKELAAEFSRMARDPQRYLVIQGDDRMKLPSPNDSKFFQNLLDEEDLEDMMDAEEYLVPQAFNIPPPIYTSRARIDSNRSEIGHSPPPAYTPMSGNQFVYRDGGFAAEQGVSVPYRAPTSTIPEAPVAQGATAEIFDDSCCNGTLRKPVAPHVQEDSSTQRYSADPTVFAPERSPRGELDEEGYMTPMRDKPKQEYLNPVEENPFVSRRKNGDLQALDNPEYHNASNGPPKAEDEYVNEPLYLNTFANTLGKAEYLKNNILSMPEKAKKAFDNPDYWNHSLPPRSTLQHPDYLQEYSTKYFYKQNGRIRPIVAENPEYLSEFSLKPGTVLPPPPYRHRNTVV
Chain of Lck (P06239 whole entry): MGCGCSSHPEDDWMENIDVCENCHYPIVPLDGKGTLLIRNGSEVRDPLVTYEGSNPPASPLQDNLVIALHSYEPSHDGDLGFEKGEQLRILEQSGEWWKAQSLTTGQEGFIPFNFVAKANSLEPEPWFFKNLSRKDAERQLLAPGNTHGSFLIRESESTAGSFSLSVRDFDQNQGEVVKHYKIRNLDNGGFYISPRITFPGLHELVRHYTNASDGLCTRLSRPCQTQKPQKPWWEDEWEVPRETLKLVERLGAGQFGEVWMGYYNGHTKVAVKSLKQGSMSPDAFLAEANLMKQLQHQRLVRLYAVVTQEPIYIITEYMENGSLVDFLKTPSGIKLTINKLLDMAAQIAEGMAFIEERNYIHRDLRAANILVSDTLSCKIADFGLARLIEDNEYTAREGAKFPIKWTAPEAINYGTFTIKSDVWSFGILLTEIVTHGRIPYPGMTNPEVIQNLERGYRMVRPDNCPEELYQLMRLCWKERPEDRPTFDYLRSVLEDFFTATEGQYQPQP
Chain of BRK (Q13882 whole entry): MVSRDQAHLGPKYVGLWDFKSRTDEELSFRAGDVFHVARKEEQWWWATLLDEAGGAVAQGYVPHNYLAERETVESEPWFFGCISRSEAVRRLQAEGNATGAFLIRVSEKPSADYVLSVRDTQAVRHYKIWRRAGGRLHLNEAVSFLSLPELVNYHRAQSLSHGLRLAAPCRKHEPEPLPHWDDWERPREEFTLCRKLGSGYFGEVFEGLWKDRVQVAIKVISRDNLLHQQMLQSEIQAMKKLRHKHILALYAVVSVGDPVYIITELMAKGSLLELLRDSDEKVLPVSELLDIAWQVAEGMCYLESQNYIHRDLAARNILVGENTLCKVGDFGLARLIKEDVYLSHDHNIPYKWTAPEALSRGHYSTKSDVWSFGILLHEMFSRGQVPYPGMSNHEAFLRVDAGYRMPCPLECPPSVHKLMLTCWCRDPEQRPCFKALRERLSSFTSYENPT

Consider `COc1ccc(Cl)c(S(=O)(=O)Nc2ccc(-c3nc(OC[C@H]4CNCCO4)c4c(C)n[nH]c4n3)cc2)c1` [290-R, reference compound], for which the remaining activity at 1 µM is 66% in assay [1]; 113% in assay [2]; 98% in assay [3]; 120% in assay [4]; 89% in assay [5]; 102% in assay [6].
Regarding `Cc1ccc(F)c(S(=O)(=O)Nc2ccc(-c3nc(OC[C@H]4CNCCO4)c4cn[nH]c4n3)cc2)c1` [308-R, reference compound], the remaining activity at 1 µM in assay [1] was found to be 63%; in assay [2], 86%; in assay [3], 101%; in assay [4] it was 56%; in assay [5] it was 98%; in assay [6], 67%.
With `Cc1ccc(F)c(S(=O)(=O)Nc2ccc(-c3nc(OC[C@H]4CN(CCCCCCOCCOCCOCC(=O)N[C@H](C(=O)N5C[C@H](O)C[C@H]5C(=O)NCc5ccc(-c6scnc6C)cc5)C(C)(C)C)CCO4)c4cn[nH]c4n3)cc2)c1` [SGK3-PROTAC1], the remaining activity at 1 µM in assay [1] (1 µM) came to 106%; in assay [2] (1 µM), 87%; in assay [3] (1 µM), 75%; in assay [4] (1 µM), 94%; in assay [5] (1 µM) it was 124%; in assay [6] (1 µM) it was 92%.
Take `Cc1ccc(F)c(S(=O)(=O)Nc2ccc(-c3nc(OC[C@H]4CN(CCCCCCOCCOCCOCC(=O)N[C@H](C(=O)N5C[C@@H](O)C[C@H]5C(=O)NCc5ccc(-c6scnc6C)cc5)C(C)(C)C)CCO4)c4cn[nH]c4n3)cc2)c1` [cisSGK3-PROTAC1]: the remaining activity at 1 µM worked out at 111% in assay [1] (1 µM); 105% in assay [2] (1 µM); 75% in assay [3] (1 µM); 97% in assay [4] (1 µM); 116% in assay [5] (1 µM); 103% in assay [6] (1 µM).
